PMC6155662, “Trypanocidal Activity of Quinoxaline 1,4 Di-N-oxide Derivatives as Trypanothione Reductase Inhibitors” (Molecules : A Journal of Synthetic Chemistry and Natural …, 2017)
Like-named read-outs stand apart in the source and are kept apart here.

Legend:
[1] = test system: bloodstream trypomastigotes NINOA and INC-5 of T. cruzi; set-up: method as in PMID 24691716; settings: 5 µg/mL (M2 = 14.73 µM, M8 = 17.98 µM, M6 = 14.91 µM); NINOA and INC-5 bloodstream trypomastigotes; cited from earlier work
recombinant T. cruzi TR = target: T1, recombinant T. cruzi TR (Trypanosoma cruzi, UniProt P28593); assay: TR enzyme inhibition (NADPH consumption at 340 nm); format: biochemical; settings: for inhibitory activity on TR: even when tested at 100 μM, 100 μM or 40 μM TS2; for inhibition at 40 µM: inhibitor 40 µM; for inhibition at 100 µM: inhibitor 100 µM
T1 construct: made in house
T1 sequence (P28593 whole entry): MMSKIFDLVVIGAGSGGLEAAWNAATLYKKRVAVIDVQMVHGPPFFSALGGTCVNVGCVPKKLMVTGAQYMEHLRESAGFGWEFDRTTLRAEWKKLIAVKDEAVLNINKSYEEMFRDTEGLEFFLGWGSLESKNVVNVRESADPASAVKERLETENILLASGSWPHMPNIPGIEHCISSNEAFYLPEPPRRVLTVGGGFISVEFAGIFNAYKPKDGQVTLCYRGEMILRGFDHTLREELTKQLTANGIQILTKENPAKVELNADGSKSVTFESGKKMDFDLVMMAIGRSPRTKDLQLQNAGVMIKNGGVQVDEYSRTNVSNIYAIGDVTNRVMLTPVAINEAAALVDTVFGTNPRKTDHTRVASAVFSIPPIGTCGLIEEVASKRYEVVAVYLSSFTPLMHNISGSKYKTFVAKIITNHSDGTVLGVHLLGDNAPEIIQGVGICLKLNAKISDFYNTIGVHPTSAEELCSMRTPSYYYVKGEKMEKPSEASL
Procedure: Trypanothione disulfide (TS2) and recombinant T. cruzi TR were prepared following published procedures. Recombinant human glutathione reductase (GR) was kindly provided by Dr. Heiner Schirmer, Heidelberg Germany. Stock solutions (5 mM) of the inhibitors were prepared in DMSO. The kinetic analyses were conducted using a Jasco V650 spectrophotometer. All enzymatic tests were performed in polystyrene optical cuvettes (10 × 4 × 45 mm). TR activity was measured at 25 °C in a total volume of 1 mL TR assay buffer (40 mM HEPES, 1 mM EDTA, pH 7.5 [47]) containing 100 μM NADPH and 5–10 mU enzyme in the absence and presence of the inhibitor. Each assay contained a total of 5% DMSO. The reaction was started by adding TS2 and NADPH consumption was followed at 340 nm.
Five compound concentrations were used ranging from 100–5 μM. All measurements were performed twice in three independent series. Enzyme activity was plotted versus increasing inhibitor concentrations. IC50 values were calculated using the four-parameter equation model 205 and the option “unlock” from the XLfit add-in (IDBS, Guildford, United Kingdom) for Excel (Microsoft Corporation, Redmond, WA, USA).
The type of inhibition and the inhibitor constants were derived from Lineweaver-Burk plot. The activity of TR was measured in the absence and presence of two to three constant concentrations of inhibitor varying the concentration of TS2 (20, 40, 60, 100 and 200 µM). The inhibitory constant Ki was calculated from the direct plot using nonlinear least-squares data fitting in Excel spreadsheet.

TR = settings: known TR inhibitor, quoted for comparison; no reference given; cited from earlier work
[2] = 40 µM TS2, read-out: % Inhibition of TR at 40 µM [TS2]
[3] = 100 µM TS2, read-out: % Inhibition of TR at 100 µM [TS2]

inhibitory activity on TR (recombinant T. cruzi TR)	inhibition at 40 µM (recombinant T. cruzi TR; [2])	inhibition at 40 µM (recombinant T. cruzi TR; [3])	inhibition at 100 µM (recombinant T. cruzi TR; [2])	inhibition at 100 µM (recombinant T. cruzi TR; [3])	SMILES	% lysis at 5 µg/mL [1]	Ki (TR)
no or negligible inhibitory activity	0%	0%	7.5%	0%	COC(=O)c1ccc2c(c1)[n+]([O-])c(C(=O)OC(C)(C)C)c(C)[n+]2[O-] [Compound T-021]	about 50%	–
no or negligible inhibitory activity	0%	0%	0%	0%	COC(=O)c1ccc2c(c1)[n+]([O-])c(C(N)=O)c(C)[n+]2[O-] [Compound T-044]	about 50%	–
–	–	–	–	–	CCN(CC)CCCC(C)Nc1c2ccc(Cl)cc2nc2ccc(OC)cc12 (stereo not shown) [mepacrine]	–	19 µM
